# Entries after “also recorded” stand apart in the source; their conditions may differ.
# Experiments:
# [1] = Survival after severe acetaminophen intoxication, fasted 36 hours (FIG. 3); assay type: in vivo, mice; settings: mouse, in vivo, ip; 350 mg/kg i.p., fasted 36 hours, by 8 hours
# [2] = system: acetaminophen-intoxicated mice; assay: as above; assay type: in vivo
# [3] = system: acetaminophen-induced increases in ALT plasma levels; assay: Serum/plasma ALT levels with different frequencies and starting points of AHPP or NAC treatment (FIG. 2); assay type: in vivo, rats
# Source text: The effectiveness of AHPP when given at various frequencies and starting points of administration was also examined. […] Serum ALT levels in rats were then examined
# The bars from the left to the right represent the following groups: […]
# [4] = system: acetaminophen-induced liver injury; assay: Plasma ALT and AST release after acetaminophen, with simultaneous AHPP treatment (FIGS. 1A and 1B); assay type: in vivo, rats; settings: AHPP 50 mg/kg q8h per gavage, simultaneous with acetaminophen 350 mg/kg i.p.
# Protocol: The effect of AHPP on the release of ALT and AST in plasma was examined. […] The effect of AHPP is measured by the release of AST and ALT in rats.
# [5] = system: liver tissues (centrilobular injury); assay: Histological injury score in the liver; assay type: in vivo, rats
# Protocol: Scoring was performed by two independent investigators who were blinded to the treatment regimen. The following grading system was used: 0--normal liver, no signs of injury; 1--rare areas of centrilobular injury; 2--moderate injury involving many centrilobular areas; 3--extensive centrilobular necrosis; 4--massive hepatic injury involving all centrilobular areas and beyond.
# [6] = system: acetaminophen-induced liver injury; assay: Minimally effective AHPP dose: reduction in serum ALT; assay type: in vivo
# [7] = system: acetaminophen-induced mortality; assay: Dose response survival study; assay type: in vivo; settings: for protective effect / survival: 24 hours; for survival rate: vehicle 25%; for survival: vehicle 0%
# Protocol: The minimally effective dose of AHPP was examined. Criteria for an effective dose included ability to suppress liver injury and protect against acetaminophen-induced mortality. […] Although the effect was only partial, ALT levels were reduced by 56±16% (n=8; p<0.05).
# In order to validate the significance of the above mentioned reductions in serum transaminases, a dose response survival study was also performed. […] Survival rate was 25% in the vehicle treated group, and improved to 87% with 3 mg/kg and 10 mg/kg q8h doses. […] For the survival studies, n=8-10 animals per group. […] The effective dose range lays between 10 and 50 mg/kg of AHPP q8h per enteral gavage.
# [8] = Preliminary toxicity study, enteral administration; assay type: in vivo, mice; settings: enteral gavage up to 1000 mg/kg (300, 500, 1000 mg/kg), 24 h, n=8 per group
# Protocol: Preliminary toxicity studies were performed with AHPP to estimate the expected therapeutic ratio of the compound.
# [9] = 50 mg/kg enterally, 4 h post-acetaminophen
compound,measurement,setting,value
"CC(=O)Nc1ccc(O)cc1 [acetaminophen, reference compound]",mortality at 8 h,[1],75%
same,onset of lethality,"[2]; 350 mg/kg i.p., fasted 36 hours",2 h
"CC(=O)N[C@@H](CS)C(=O)O [N-acetyl-cysteine, reference compound]","protective effect, co-treatment (0 h)",[3]; 50 mg/kg enterally at time of acetaminophen injection,significantly protective
same,"degree of liver injury, 4 h post-treatment",[3]; [9],exacerbated the degree of liver injury
same,"protective effect, 4 h post-treatment",[3]; [9],lost its protective effect
"Nc1nc(O)nc2[nH]ncc12 [AHPP, 4-Amino-6-hydroxypyrazolo[3,4-d]pyrimidine]","degree of liver injury, as assessed by release of ALT and AST",[4],significantly reduced the degree of liver injury
same,median histological injury score,"[5]; AHPP+Acetaminophen, scale 0 (normal liver) to 4 (massive hepatic injury), p<0.05",2.1
same,histological injury in the liver,"[5]; response to AHPP treatment, in words",significant attenuation of the histological injury
same,"protective effect, 8 h+16 h",[3]; 50 mg/kg enteral gavage at 8 h and 16 h post-acetaminophen,significant protective effects
same,"effect on ALT levels, 4 h post-treatment","[3]; 50 mg/kg enterally, 4 h post-acetaminophen, no supplemental doses",reduced
same,ALT levels vs acetaminophen alone,"[3]; concurrent with, or subsequent to acetaminophen",lowered ALT levels
same,enteral uptake,"[3]; inferred from efficacy via gavage, 24 h protocol",sufficient enteral uptake
same,effect of timing and frequency of administration,"[3]; start close in time to acetaminophen, followed by additional treatments at 8 h interval",most effective
same,"hepatoprotection, conclusion",[3]; summary of data,advantageously compares to NAC as a hepatoprotective agent; also recorded: effective via an enteral delivery route; also recorded: effective both as a co-treatment and in delayed post-treatment regimens
same,protection / survival,"[2]; AHPP 30 mg/kg q8h gavage, simultaneous with acetaminophen 350 mg/kg i.p.",markedly protective; also recorded: dramatically prolonged survival
same,protective effect,[6]; 3 mg/kg q8h per enteral gavage,significant protection
same,reduction in ALT levels,"[6]; 3 mg/kg q8h per enteral gavage, n=8, p<0.05",56±16%
same,efficacy relative to 50 mg/kg dose,[6]; 10 mg/kg q8h per enteral gavage,equivalent in efficacy to the 50 mg/kg dose
same,reduction in serum ALT concentration,"[6]; 10 mg/kg q8h per enteral gavage, n=7, p<0.01",89%
same,protective effect,[7]; 3 mg/kg q8h,lost its protective effect
same,survival rate,"[7]; 3 mg/kg q8h enteral gavage, 8 hours",87%
same,survival,[7]; 3 mg/kg q8h enteral gavage,0%
same,protective effect,[7]; 10 mg/kg q8h,maintained its protective effect
same,survival rate,"[7]; 10 mg/kg q8h enteral gavage, 8 hours",87%
same,survival,[7]; 10 mg/kg q8h enteral gavage,63%
same,protection against mortality,"[7]; 3 and 10 mg/kg q8h enteral gavage, 8 hours",significantly protected against mortality
same,mortality or behavioral or histological alterations,[8],did not result in mortality or behavioral or histological alterations
